Test results reported in patent US9932381B2, “Exendin-4 derivatives as selective glucagon receptor agonists” (priority 2014, dated 2018).
Where two headings read alike, the source gives them in different places. Non-standard residues stand in square brackets, D forms with d. Residues, ends and D or L forms follow the SMILES beside them. Ala(4-thiazolyl) = N[C@@H](Cc1cscn1)C(=O)O; 1Nal = N[C@@H](Cc1cccc2ccccc12)C(=O)O; Nle = CCCC[C@H](N)C(=O)O

Legend:
[1] = molecular target: T1, human GLP-1 receptor (hGLP-1 R) (Homo sapiens, UniProt P43220); assay: cAMP response (HTRF) of HEK-293 cells stably expressing human GLP-1 receptor; format: cell-based; details: Table 4
T1 construct: expressed in transfected cells; host or cells: HEK-293
T1 sequence (P43220 24-463): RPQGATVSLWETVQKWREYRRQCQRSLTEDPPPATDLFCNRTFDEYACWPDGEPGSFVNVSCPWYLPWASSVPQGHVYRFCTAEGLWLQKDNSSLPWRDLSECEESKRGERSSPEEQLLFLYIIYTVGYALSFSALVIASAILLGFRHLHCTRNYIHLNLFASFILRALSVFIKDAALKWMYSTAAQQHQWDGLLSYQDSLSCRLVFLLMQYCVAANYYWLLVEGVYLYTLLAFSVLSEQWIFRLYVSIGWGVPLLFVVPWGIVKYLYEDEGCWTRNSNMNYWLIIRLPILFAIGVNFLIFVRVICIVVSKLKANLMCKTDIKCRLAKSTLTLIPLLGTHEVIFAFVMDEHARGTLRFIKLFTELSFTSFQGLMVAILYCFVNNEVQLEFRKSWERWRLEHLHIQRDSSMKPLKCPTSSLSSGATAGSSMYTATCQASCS
Method: (§1) cAMP content of cells was determined using a kit from Cisbio Corp. (cat. no. 62AM4PEC) based on HTRF (Homogenous Time Resolved Fluorescence). For preparation, cells were split into T175 culture flasks and grown overnight to near confluency in medium (DMEM/10% FBS). Medium was then removed and cells washed with PBS lacking calcium and magnesium, followed by proteinase treatment with accutase (Sigma-Aldrich cat. no. A6964). Detached cells were washed and resuspended in assay buffer (1×HBSS; 20 mM HEPES, 0.1% BSA, 2 mM IBMX) and cellular density determined. They were then diluted to 400000 cells/ml and 25 μl-aliquots dispensed into the wells of 96-well plates. For measurement, 25 μl of test compound in assay buffer was added to the wells, followed by incubation for 30 minutes at room temperature. After addition of HTRF reagents diluted in lysis buffer (kit components), the plates were incubated for 1 hr, followed by measurement of the fluorescence ratio at 665/620 nm. In vitro potency of agonists was quantified by determining the concentrations that caused 50% activation of maximal response (EC50).

[2] = molecular target: T2, human glucagon receptor (hGLUC R) (Homo sapiens, UniProt P47871); assay: cAMP response (HTRF) of HEK-293 cells stably expressing human glucagon receptor; format: cell-based
T2 construct: expressed in transfected cells; host or cells: HEK-293
T2 sequence (P47871 26-477): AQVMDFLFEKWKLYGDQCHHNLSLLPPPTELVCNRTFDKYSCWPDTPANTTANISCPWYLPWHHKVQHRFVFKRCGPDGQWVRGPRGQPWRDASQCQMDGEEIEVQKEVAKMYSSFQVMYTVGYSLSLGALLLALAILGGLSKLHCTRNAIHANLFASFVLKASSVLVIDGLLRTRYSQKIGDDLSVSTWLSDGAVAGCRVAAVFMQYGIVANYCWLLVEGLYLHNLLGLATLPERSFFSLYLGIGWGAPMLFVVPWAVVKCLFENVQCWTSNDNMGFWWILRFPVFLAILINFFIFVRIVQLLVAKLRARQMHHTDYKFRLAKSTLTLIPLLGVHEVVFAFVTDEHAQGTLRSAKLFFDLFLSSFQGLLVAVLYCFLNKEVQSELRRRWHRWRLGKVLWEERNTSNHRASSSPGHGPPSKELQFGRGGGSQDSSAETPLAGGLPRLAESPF
Method: as §1, with “temperature.” for “temperature. After addition of HTRF reagents diluted in lysis buffer (kit components), the plates were incubated for 1 hr, followed by measurement of the fluorescence ratio at 665/620 nm. In vitro potency of agonists was quantified by determining the concentrations that caused 50% activation of maximal response (EC50).”

[3] = Table 5, Tza vs. His in position 1, read-out: EC50 hGlucagon-R

Row | Compound | EC50 [1] [pM] | EC50 [2, 3] [pM] | also measured
1 | CC[C@H](C)[C@H](NC(=O)[C@H](Cc1ccccc1)NC(=O)[C@H](CCC(=O)O)NC(=O)[C@H](CCC(N)=O)NC(=O)[C@H](C)NC(=O)[C@H](CCCNC(=N)N)NC(=O)[C@H](CCCNC(=N)N)NC(=O)[C@H](CO)NC(=O)[C@H](CCC(=O)O)NC(=O)[C@H](CC(C)C)NC(=O)[C@H](CCC(N)=O)NC(=O)[C@H](CCCCN)NC(=O)[C@H](CO)NC(=O)[C@H](CC(C)C)NC(=O)[C@H](CC(=O)O)NC(=O)[C@H](CO)NC(=O)[C@@H](NC(=O)[C@H](Cc1ccccc1)NC(=O)[C@@H](NC(=O)CNC(=O)[C@H](CCC(N)=O)NC(=O)[C@H](CO)NC(=O)[C@@H](N)Cc1cscn1)[C@@H](C)O)[C@@H](C)O)C(=O)N[C@@H](CCC(=O)O)C(=O)N[C@@H](Cc1c[nH]c2ccccc12)C(=O)N[C@@H](CC(C)C)C(=O)N[C@@H](CC(C)C)C(=O)N[C@@H](C)C(=O)NCC(=O)NCC(=O)N1CCC[C@H]1C(=O)N[C@@H](CCC(=O)O)C(=O)N[C@@H](CO)C(=O)NCC(=O)N[C@@H](C)C(=O)N1CCC[C@H]1C(=O)N1CCC[C@H]1C(=O)N1CCC[C@H]1C(=O)N[C@@H](CO)C(=O)O [SEQ ID NO 4, Tza-SQGTFTSDLSKQLESRRAQEFIEWLLAGGPESGAPPPS-OH] (H-[Ala(4-thiazolyl)]SQGTFTSDLSKQLESRRAQEFIEWLLAGGPESGAPPPS-OH; N-terminus assumed) | 3300 |  | 
2 | CC[C@H](C)[C@H](NC(=O)[C@H](Cc1ccccc1)NC(=O)[C@H](CCC(=O)O)NC(=O)[C@H](CCC(N)=O)NC(=O)[C@H](C)NC(=O)[C@H](CCCNC(=N)N)NC(=O)[C@H](CCCNC(=N)N)NC(=O)[C@H](CO)NC(=O)[C@H](CCC(=O)O)NC(=O)[C@H](CC(C)C)NC(=O)[C@H](CCC(N)=O)NC(=O)[C@H](CCCCN)NC(=O)[C@H](CO)NC(=O)[C@H](Cc1cccc2ccccc12)NC(=O)[C@H](CC(=O)O)NC(=O)[C@H](CO)NC(=O)[C@@H](NC(=O)[C@H](Cc1ccccc1)NC(=O)[C@@H](NC(=O)CNC(=O)[C@H](CCC(N)=O)NC(=O)[C@H](CO)NC(=O)[C@@H](N)Cc1cscn1)[C@@H](C)O)[C@@H](C)O)C(=O)N[C@@H](CCC(=O)O)C(=O)N[C@@H](Cc1c[nH]c2ccccc12)C(=O)N[C@@H](CC(C)C)C(=O)N[C@@H](CC(C)C)C(=O)N[C@@H](C)C(=O)N[C@H](C(=O)NCC(=O)N1CCC[C@H]1C(=O)N[C@@H](CCC(=O)O)C(=O)N[C@@H](CO)C(=O)NCC(=O)N[C@@H](C)C(=O)N1CCC[C@H]1C(=O)N1CCC[C@H]1C(=O)N1CCC[C@H]1C(=O)N[C@@H](CO)C(=O)O)[C@@H](C)O [SEQ ID NO 11, Tza-S-Q-G-T-F-T-S-D-1Nal-SKQLESRRAQEFIEWLLATGPESGAPPPS-OH] (H-[Ala(4-thiazolyl)]SQGTFTSD[1Nal]SKQLESRRAQEFIEWLLATGPESGAPPPS-OH; N-terminus assumed) | 11700 |  | 
3 | CCCC[C@H](NC(=O)[C@H](CCC(N)=O)NC(=O)[C@H](CCCCN)NC(=O)[C@H](CO)NC(=O)[C@H](CC(C)C)NC(=O)[C@H](CC(=O)O)NC(=O)[C@H](CO)NC(=O)[C@@H](NC(=O)[C@H](Cc1ccccc1)NC(=O)[C@@H](NC(=O)CNC(=O)[C@H](CCC(N)=O)NC(=O)[C@H](CO)NC(=O)[C@@H](N)Cc1cscn1)[C@@H](C)O)[C@@H](C)O)C(=O)N[C@@H](CCC(=O)O)C(=O)N[C@@H](CO)C(=O)N[C@@H](CCCNC(=N)N)C(=O)N[C@@H](CCCNC(=N)N)C(=O)N[C@@H](C)C(=O)N[C@@H](CCC(N)=O)C(=O)N[C@@H](CCC(=O)O)C(=O)N[C@@H](Cc1ccccc1)C(=O)N[C@H](C(=O)N[C@@H](CCC(=O)O)C(=O)N[C@@H](Cc1c[nH]c2ccccc12)C(=O)N[C@@H](CC(C)C)C(=O)N[C@@H](CC(C)C)C(=O)N[C@@H](C)C(=O)N[C@H](C(=O)NCC(=O)N1CCC[C@H]1C(=O)N[C@@H](CCC(=O)O)C(=O)N[C@@H](CO)C(=O)NCC(=O)N[C@@H](C)C(=O)N1CCC[C@H]1C(=O)N1CCC[C@H]1C(=O)N1CCC[C@H]1C(=O)N[C@@H](CO)C(=O)O)[C@@H](C)O)[C@@H](C)CC [SEQ ID NO 16, Tza-S-Q-G-T-F-T-S-D-L-S-K-Q-Nle-ESRRAQEFIEWLLATGPESGAPPPS-OH] (H-[Ala(4-thiazolyl)]SQGTFTSDLSKQ[Nle]ESRRAQEFIEWLLATGPESGAPPPS-OH; N-terminus assumed) | 19700 |  | 
4 | CC[C@H](C)[C@H](NC(=O)[C@H](Cc1ccccc1)NC(=O)[C@H](CC(=O)O)NC(=O)[C@H](CCC(N)=O)NC(=O)[C@H](C)NC(=O)[C@H](CCCNC(=N)N)NC(=O)[C@H](CCCNC(=N)N)NC(=O)[C@H](CO)NC(=O)[C@H](CCC(=O)O)NC(=O)[C@H](CC(C)C)NC(=O)[C@H](CCC(N)=O)NC(=O)[C@H](CCCCN)NC(=O)[C@H](CO)NC(=O)[C@H](Cc1cccc2ccccc12)NC(=O)[C@H](CC(=O)O)NC(=O)[C@H](CO)NC(=O)[C@@H](NC(=O)[C@H](Cc1ccccc1)NC(=O)[C@@H](NC(=O)CNC(=O)[C@H](CCC(N)=O)NC(=O)[C@H](CO)NC(=O)[C@@H](N)Cc1cscn1)[C@@H](C)O)[C@@H](C)O)C(=O)N[C@@H](CCC(=O)O)C(=O)N[C@@H](Cc1c[nH]c2ccccc12)C(=O)N[C@@H](CC(C)C)C(=O)N[C@@H](CC(C)C)C(=O)N[C@@H](C)C(=O)N[C@H](C(=O)NCC(=O)N1CCC[C@H]1C(=O)N[C@@H](CCC(=O)O)C(=O)N[C@@H](CO)C(=O)NCC(=O)N[C@@H](C)C(=O)N1CCC[C@H]1C(=O)N1CCC[C@H]1C(=O)N1CCC[C@H]1C(=O)N[C@@H](CO)C(=O)O)[C@@H](C)O [SEQ ID NO 22, Tza-S-Q-G-T-F-T-S-D-1Nal-SKQLESRRAQDFIEWLLATGPESGAPPPS-OH] (H-[Ala(4-thiazolyl)]SQGTFTSD[1Nal]SKQLESRRAQDFIEWLLATGPESGAPPPS-OH; N-terminus assumed) |  |  | EC50 ([2]; Table 4, read-out: EC50 hGLUC R): 1 pM
5 | CC[C@H](C)[C@H](NC(=O)[C@H](Cc1ccccc1)NC(=O)[C@H](CCC(=O)O)NC(=O)[C@H](CCC(N)=O)NC(=O)[C@H](C)NC(=O)[C@H](CCCNC(=N)N)NC(=O)[C@H](CCCNC(=N)N)NC(=O)[C@H](CO)NC(=O)[C@H](CCC(=O)O)NC(=O)[C@H](CC(C)C)NC(=O)[C@H](CCC(N)=O)NC(=O)[C@H](CCCCN)NC(=O)[C@H](CO)NC(=O)[C@H](Cc1ccc(O)cc1)NC(=O)[C@H](CC(=O)O)NC(=O)[C@H](CO)NC(=O)[C@@H](NC(=O)[C@H](Cc1ccccc1)NC(=O)[C@@H](NC(=O)CNC(=O)[C@H](CCC(N)=O)NC(=O)[C@H](CO)NC(=O)[C@@H](N)Cc1c[nH]cn1)[C@@H](C)O)[C@@H](C)O)C(=O)N[C@@H](CCC(=O)O)C(=O)N[C@@H](Cc1c[nH]c2ccccc12)C(=O)N[C@@H](CC(C)C)C(=O)N[C@@H](CC(C)C)C(=O)N[C@@H](C)C(=O)NCC(=O)NCC(=O)N1CCC[C@H]1C(=O)N[C@@H](CCC(=O)O)C(=O)N[C@@H](CO)C(=O)NCC(=O)N[C@@H](C)C(=O)N1CCC[C@H]1C(=O)N1CCC[C@H]1C(=O)N1CCC[C@H]1C(=O)N[C@@H](CO)C(=O)O [SEQ ID NO 28, HSQGTFTSDYSKQLESRRAQEFIEWLLAGGPESGAPPPS-OH, reference compound] |  | 1 | 
6 | CCCC[C@H](NC(=O)[C@H](CCC(N)=O)NC(=O)[C@H](CCCCN)NC(=O)[C@H](CO)NC(=O)[C@H](CC(C)C)NC(=O)[C@H](CC(=O)O)NC(=O)[C@H](CO)NC(=O)[C@@H](NC(=O)[C@H](Cc1ccccc1)NC(=O)[C@@H](NC(=O)CNC(=O)[C@H](CCC(N)=O)NC(=O)[C@H](CO)NC(=O)[C@@H](N)Cc1c[nH]cn1)[C@@H](C)O)[C@@H](C)O)C(=O)N[C@@H](CCC(=O)O)C(=O)N[C@@H](CO)C(=O)N[C@@H](CCCNC(=N)N)C(=O)N[C@@H](CCCNC(=N)N)C(=O)N[C@@H](C)C(=O)N[C@@H](CCC(N)=O)C(=O)N[C@@H](CCC(=O)O)C(=O)N[C@@H](Cc1ccccc1)C(=O)N[C@H](C(=O)N[C@@H](CCC(=O)O)C(=O)N[C@@H](Cc1c[nH]c2ccccc12)C(=O)N[C@@H](CC(C)C)C(=O)N[C@@H](CC(C)C)C(=O)N[C@@H](C)C(=O)N[C@H](C(=O)NCC(=O)N1CCC[C@H]1C(=O)N[C@@H](CCC(=O)O)C(=O)N[C@@H](CO)C(=O)NCC(=O)N[C@@H](C)C(=O)N1CCC[C@H]1C(=O)N1CCC[C@H]1C(=O)N1CCC[C@H]1C(=O)N[C@@H](CO)C(=O)O)[C@@H](C)O)[C@@H](C)CC [SEQ ID NO 36, H-S-Q-G-T-F-T-S-D-L-S-K-Q-Nle-ESRRAQEFIEWLLATGPESGAPPPS-OH, reference compound] (H-HSQGTFTSDLSKQ[Nle]ESRRAQEFIEWLLATGPESGAPPPS-OH) |  | 1.4 | 
7 | H-HSQGTFTSDLSKQLESRRAQEFIEWLLATGPESGAPPPS-OH [SEQ ID NO 34, HSQGTFTSDLSKQLESRRAQEFIEWLLATGPESGAPPPS-OH, reference compound] |  | 1.4 | 
